The source of these data is patent US6518317B1, “Antiviral agents” (priority 1997, dated 2003).

Test [1] deals with Sendai virus. The conditions noted are these: cited from earlier work.
In test [2] the test system is carcinogenesis caused by a two-stage carcinogenesis on skin. Description: Two-stage (DMBA/TPA) carcinogenesis on skin of mice. Type of test: in vivo, mice of ICR strain. As to conditions: mouse, in vivo. As for the experimental part: Hair on the back of mice of ICR strain (purchased from Nippon SLC; seven weeks age; female) was shaved and DMBA (dimethylbenzanthracene) as an initiator in a form of a solution in acetone was applied thereto at the dose of 50 μg/mouse.
Thus, FIG. 5 is a graph showing the anti-carcinogenic action of the cyclopentenone in which ordinate is a carcinogenic rate while abscissa is time (weeks). In the graph, open triangles, black triangles and open circles stand for a group treated with 2.5 mg of the cyclopentenone per mouse (12 mice in total), a group treated with 0.8 mg of the cyclopentenone per mouse (11 mice in total) and a control group (12 mice in total), respectively.

In test [3] the test system is Ad5 dlX [an adenovirus]. Briefly: Adenovirus hexon protein in HeLa cells treated with cyclopentenone before infection. Type of test: cell-based. The conditions noted are these: Examples 2-(2)~(6). On the procedure: After that, the cells were washed with the DMEM containing 5% of fetal bovine serum, then the DMEM containing 5% of fetal bovine serum which contained Ad5 dlX [an adenovirus; Saito, etal.; Journal ofVirology, volume 54, pages 711-719 (1985)] was added to the cells so that the cells were infected therewith and incubation was conducted for 20 hours. […] The medium was discarded, 1 ml of 10% trichloroacetic acid was added to each of the wells and the cells were recovered by a scraper.
Then SDS-PAGE and blotting of the treated cells obtained hereinabove were conducted by the method of Example 1 to detect the expression of hexon proteins of the adenovirus. Incidentally, anti-adenovirus hexon antibody (AB 1056; manufactured by Chemicon International Inc.) was used as the primary antibody.

The subject of test [4] is heat shock protein of 70 kDa. Description: Induction of heat shock protein of 70 kDa in HL-60 cells (SDS-PAGE and blotting). Type of test: cell-based, human. As to conditions: HL-60 cells, as Table 1. On the procedure:
(1) An RPMI 1640 medium (5 ml) containing 10% of fetal bovine serum which contained 2×10^5 cells/ml of human promyelocytic leukemia cells HL-60 (ATCC CCL-240) was placed in each well of a six-well plate, incubated at 37° C. for 24 hours in the presence of 5% of CO2, then the cyclopentenone described in the referential example L was added thereto to make its final concentration 0, 10, 20, 30, 40, 50, or 100 μM and the incubation was further continued for eight hours more.
After completion of the incubation, cell numbers were counted and the cells were recovered by centrifugation and washed with phosphate-buffered saline (PBS) to prepare cyclopentenone-treated cells. In the meanwhile, cells which were heated at 45° C. for ten minutes followed by subjecting to the same incubation were prepared as well.
The cells treated as such were subjected to an SDS-polyacrylamid gel electrophoresis (SDS-PAGE) by a method mentioned in “Molecular Cloning” [Cold Spring Harbor Laboratory Press, (1989)]. The treated cells were suspended in an SDS-PAGE sample buffer to make the concentration 2.5×10^6 cells/ml, the resulting cell suspension was treated at 100° C. for ten minutes and each 5 μl thereof was applied to two sheets of SDS-PAGE gels (5% stacking gel; 10% separation gel) to conduct anelectrophoresis. One of the gels was Coomassie stained while another gel was subjected to a blotting to a polyvinylidene difluoride transfer membrane (Immobilon™, manufactured by Millipore, catalog no. IPVH000-10). The membrane was subjected to a blocking at 4° C. for one night with Block Ace (manufactured by Dainippon Pharmaceutical; catalog no. UK-B25).
The blocked membrane was made to react with monoclonal antibody HSP 72/73 (Ab-1) (manufactured by Oncogene Research Products, catalog no. HSP01) which would specifically react with heat-induced heat shock protein of 70 kDa and washed with TBS containing 0.05% of Tween 20 followed by further washing with TBS. After that, it was made to react with peroxidase-compounded secondary antibody HRP-Rabbit Anti-Mouse IgG (H+L) (manufactured by Zymed Laboratories, catalog no. 61-6520) and washed by the same manner as in the above operation. The membranes which were treated with primary and secondary antibodies as such were made to react with Renaissance™ (a chemiluminor reagent manufactured by Dupont NEN, catalog no. NEL-100) and photosensitized with an X-ray film to confirm the induction of heat shock protein of 70 kDa.
The result was that, by addition of cyclopentenone (20 to 30 μM), induction of heat shock protein of 70 kDa which is almost same as heat-treated at 45° C. for 10 minutes was confirmed. In Table 1, “+” indicates degree of intensity of induction and the more the numbers of “+”, the more the intensity of induction. Incidentally, “−” means that no induction was noted and “±” means the induction was slight.

Test [5] deals with vesicular stomatitis virus. The conditions noted are these: cited from earlier work.

On to `CCCCC[C@H](O)/C=C/[C@H]1C=CC(=O)[C@@H]1CCCCCCC(=O)O` [prostaglandin Al, prostaglandin A1], for which the “synthesis of HSP70 and HSP90” value in test [1] (animal cells infected with Sendai virus) is listed as “induced”. In test [1] (during the synthesis of HSP70 is induced), the “synthesis of virus protein” value is given as “inhibited”.

Turning to `O=C1C=C[C@@H](O)[C@@H]1O` (single isomer, unassigned) [(−)-cyclopentenone], the “anti-promoter action in two-stage chemical carcinogenesis, compared with the cyclopentenone” value in test [2] is reported as “same result”. The “antiviral activity to adenovirus, compared with the cyclopentenone” value in test [3] was “Same results”. The “induction of heat shock protein of 70 kDa, compared with the cyclopentenone” value in test [4] is “Same results”.

In the case of `O=C1C=CCC1` [2-cyclopenten-1-one], in test [5], the “concentration required for inducing the HSP70” value was “several hundred”, the “synthesis of HSP70” value was “induces” and the “synthesis of vesicular stomatitis virus protein” value was “inhibits”.

As to `O=C1C=C[C@H](O)[C@H]1O` (single isomer, unassigned) [(+)-cyclopentenone], the “anti-promoter action in two-stage chemical carcinogenesis, compared with the cyclopentenone” value in test [2] is given as “same result”. The “antiviral activity to adenovirus, compared with the cyclopentenone” value in test [3] is “Same results”. The “induction of heat shock protein of 70 kDa, compared with the cyclopentenone” value in test [4] is “Same results”.
